Assay results reported in ChEMBL document CHEMBL4732246, “Design, synthesis, and evaluation of a novel prodrug, a S-trityl--cysteine derivative targeting kinesin spindle protein” (Eur J Med Chem, 2021).
pIC50: −log10 of the molar value.

What was measured:
A549 = test: Cytotoxicity against human A549 cells overexpressing GGT assessed as cell growth inhibition measured after 72 hrs by MTS assay; type: functional
NCI-H460 = test: Cytotoxicity against human NCI-H460 cells expressing low GGT assessed as cell growth inhibition measured after 72 hrs by MTS assay; type: functional
HCT-116 = test: Cytotoxicity against human HCT-116 cells assessed as cell growth inhibition measured after 72 hrs by MTS assay; type: functional
[1] = molecular target: T1, Kinesin-like protein KIF11 (Homo sapiens, UniProt P52732); test: Inhibition C-terminal His-tagged KSP motor domain(1 to 369 residues) (unknown origin) expressed in bacteria assessed as inhibition of microtubule-stimulated ATPase activity preincubated for 30 mins followed by addition of ATP and measured after 15 mins by luciferase-derived luminiscence assay
T1 sequence (P52732 whole entry): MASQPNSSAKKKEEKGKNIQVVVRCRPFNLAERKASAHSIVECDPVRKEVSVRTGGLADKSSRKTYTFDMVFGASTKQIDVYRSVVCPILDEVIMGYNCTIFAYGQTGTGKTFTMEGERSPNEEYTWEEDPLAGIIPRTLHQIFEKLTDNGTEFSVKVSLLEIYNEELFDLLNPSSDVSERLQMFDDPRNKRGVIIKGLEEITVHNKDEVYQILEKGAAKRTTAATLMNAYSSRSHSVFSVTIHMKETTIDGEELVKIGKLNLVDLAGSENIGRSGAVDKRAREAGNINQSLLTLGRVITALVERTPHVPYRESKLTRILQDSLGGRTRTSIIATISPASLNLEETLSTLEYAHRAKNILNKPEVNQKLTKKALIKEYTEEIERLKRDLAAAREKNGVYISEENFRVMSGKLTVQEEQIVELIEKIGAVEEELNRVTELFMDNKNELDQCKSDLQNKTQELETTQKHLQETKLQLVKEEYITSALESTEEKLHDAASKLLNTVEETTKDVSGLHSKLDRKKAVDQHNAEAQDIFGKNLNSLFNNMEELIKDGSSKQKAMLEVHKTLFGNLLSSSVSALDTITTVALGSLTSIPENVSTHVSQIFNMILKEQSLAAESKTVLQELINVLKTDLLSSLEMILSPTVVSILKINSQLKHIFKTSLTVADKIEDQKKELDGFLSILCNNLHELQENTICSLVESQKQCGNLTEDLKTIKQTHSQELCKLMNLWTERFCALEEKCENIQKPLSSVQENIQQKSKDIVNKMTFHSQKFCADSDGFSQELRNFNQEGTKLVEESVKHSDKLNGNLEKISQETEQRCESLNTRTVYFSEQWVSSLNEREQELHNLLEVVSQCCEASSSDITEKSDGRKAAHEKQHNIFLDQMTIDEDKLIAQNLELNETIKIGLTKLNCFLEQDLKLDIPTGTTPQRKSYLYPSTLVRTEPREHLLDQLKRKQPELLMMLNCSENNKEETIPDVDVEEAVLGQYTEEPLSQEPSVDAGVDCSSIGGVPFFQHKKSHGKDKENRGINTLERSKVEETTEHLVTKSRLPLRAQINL

Row | pIC50 [1] | SMILES | GI50 (A549) | GI50 (NCI-H460) | GI50 (HCT-116)
1 |  | N[C@@H](CSC1(c2ccc(C(F)(F)F)cc2)c2ccccc2CCc2ccccc21)C(=O)O | 33 nM | 15 nM | 33 nM
2 | 6.45 | N[C@@H](CSC1(c2ccc(C(F)(F)F)cc2)c2ccccc2CCc2ccccc21)C(=O)NCc1ccccc1 |  |  | 282 nM
3 | 7.38 | NCCOCCOCCNC(=O)C(N)CSC1(c2ccc(C(F)(F)F)cc2)c2ccccc2CCc2ccccc21 (stereo not given) |  |  | 63 nM
4 | 7.25 | CN(C)CCNC(=O)[C@@H](N)CSC1(c2ccc(C(F)(F)F)cc2)c2ccccc2CCc2ccccc21 |  |  | 115 nM
5 | 6.84 | N[C@@H](CSC1(c2ccc(C(F)(F)F)cc2)c2ccccc2CCc2ccccc21)C(=O)NCCN1CCCCC1 |  |  | 191 nM
6 |  | CC(C)(C)OC(=O)N[C@@H](CSC1(c2ccc(C(F)(F)F)cc2)c2ccccc2CCc2ccccc21)C(=O)O |  |  | > 1000 nM
7 |  | CC(=O)N[C@@H](CSC1(c2ccc(C(F)(F)F)cc2)c2ccccc2CCc2ccccc21)C(=O)O |  |  | > 1000 nM
8 | 7.10 | N[C@@H](CSC1(c2ccc(C(F)(F)F)cc2)c2ccccc2CCc2ccccc21)C(=O)NCCO |  |  | 60 nM
